# Laboratory results published in ChEMBL document CHEMBL1201862, “PubChem BioAssay data set” (2004).
# Active and inactive are the calls of the source.
# Experiments:
# [1] = microbe, parasite or virus in culture; type: functional; settings: Mycobacterium tuberculosis
# [2] = NIH-3T3 fibroblast cytotoxicity, dose response, cytotoxicity control, cell-based, fluorescence, Alamar Blue, secondary assay (AID 2327); type: functional;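 also: NIH-3T3 mouse fibroblasts cultured with fluconazole at 8 µg/mL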
# [3] = target: 72 kDa type IV collagenase (Homo sapiens, UniProt P08253); assay: Dose Response validation of uHTS RPN11 inhibitor hits using a MMP-2 Fluorescence assay.; type: functional
# [4] = target: Small ubiquitin-related modifier 1 (Homo sapiens, UniProt P63165); assay: SUMO1 protein interaction blockers, potency – biochemical, fluorescence polarization, uHTS hits, dose response (AID 624382); type: functional; settings: read-out: IC50_Mean
# Caspase-6 = target: T1, Caspase-6 (Homo sapiens, UniProt P55212); assay: inhibition of CASP6 peptide cleavage – biochemical, VEID-R110 fluorescence, cherry-pick, dose response (AID 720632)
# T1 sequence (P55212 whole entry): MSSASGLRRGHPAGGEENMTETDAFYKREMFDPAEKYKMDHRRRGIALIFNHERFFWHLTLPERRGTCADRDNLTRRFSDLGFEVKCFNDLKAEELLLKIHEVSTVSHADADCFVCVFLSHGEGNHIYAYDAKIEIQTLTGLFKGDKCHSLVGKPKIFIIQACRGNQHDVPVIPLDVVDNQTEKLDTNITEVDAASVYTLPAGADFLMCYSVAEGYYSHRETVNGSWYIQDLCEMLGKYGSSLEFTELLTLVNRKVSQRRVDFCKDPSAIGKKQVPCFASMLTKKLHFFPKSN
# Streptococcus = assay: GAS UMAA2166 growth inhibition – luminescence, BacTiterGlo, counter-screen for streptokinase expression inhibitor project, dose response (AID 1915); type: functional, organism-based;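 also: potency for reduction of bacterial viability or growth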
# [5] = target: T2, DNA repair protein RAD52 homolog (Homo sapiens, UniProt P43351); type: functional, biochemical
# T2 sequence (P43351 whole entry): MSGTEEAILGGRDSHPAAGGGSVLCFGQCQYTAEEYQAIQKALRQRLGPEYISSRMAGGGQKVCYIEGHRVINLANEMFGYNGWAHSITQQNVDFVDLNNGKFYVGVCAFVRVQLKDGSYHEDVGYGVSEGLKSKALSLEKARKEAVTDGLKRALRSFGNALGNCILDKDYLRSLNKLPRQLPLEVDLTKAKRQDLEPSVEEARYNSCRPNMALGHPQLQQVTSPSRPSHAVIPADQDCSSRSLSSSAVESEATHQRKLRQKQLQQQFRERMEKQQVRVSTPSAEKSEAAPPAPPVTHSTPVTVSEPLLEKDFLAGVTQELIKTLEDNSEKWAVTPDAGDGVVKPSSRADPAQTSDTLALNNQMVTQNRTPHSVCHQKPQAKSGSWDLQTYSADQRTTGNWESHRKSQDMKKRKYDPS
# [6] = target: T3, Ubiquitin-conjugating enzyme E2 N (Homo sapiens, UniProt P61088); type: functional
# T3 sequence (P61088 whole entry): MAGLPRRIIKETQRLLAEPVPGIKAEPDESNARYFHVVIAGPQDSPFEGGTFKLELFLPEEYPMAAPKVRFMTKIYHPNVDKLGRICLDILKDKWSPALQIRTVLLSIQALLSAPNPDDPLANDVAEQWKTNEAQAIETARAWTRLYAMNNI
# [7] = target: T4, Short transient receptor potential channel 4 (Mus musculus, UniProt Q9QUQ5); assay: calcium entry via TRPC4 opening agents – cell-based, HEK293 TRPC4/mu-opioid, Fluo-4 calcium, dose response (AID 434937); type: functional
# T4 sequence (Q9QUQ5 whole entry): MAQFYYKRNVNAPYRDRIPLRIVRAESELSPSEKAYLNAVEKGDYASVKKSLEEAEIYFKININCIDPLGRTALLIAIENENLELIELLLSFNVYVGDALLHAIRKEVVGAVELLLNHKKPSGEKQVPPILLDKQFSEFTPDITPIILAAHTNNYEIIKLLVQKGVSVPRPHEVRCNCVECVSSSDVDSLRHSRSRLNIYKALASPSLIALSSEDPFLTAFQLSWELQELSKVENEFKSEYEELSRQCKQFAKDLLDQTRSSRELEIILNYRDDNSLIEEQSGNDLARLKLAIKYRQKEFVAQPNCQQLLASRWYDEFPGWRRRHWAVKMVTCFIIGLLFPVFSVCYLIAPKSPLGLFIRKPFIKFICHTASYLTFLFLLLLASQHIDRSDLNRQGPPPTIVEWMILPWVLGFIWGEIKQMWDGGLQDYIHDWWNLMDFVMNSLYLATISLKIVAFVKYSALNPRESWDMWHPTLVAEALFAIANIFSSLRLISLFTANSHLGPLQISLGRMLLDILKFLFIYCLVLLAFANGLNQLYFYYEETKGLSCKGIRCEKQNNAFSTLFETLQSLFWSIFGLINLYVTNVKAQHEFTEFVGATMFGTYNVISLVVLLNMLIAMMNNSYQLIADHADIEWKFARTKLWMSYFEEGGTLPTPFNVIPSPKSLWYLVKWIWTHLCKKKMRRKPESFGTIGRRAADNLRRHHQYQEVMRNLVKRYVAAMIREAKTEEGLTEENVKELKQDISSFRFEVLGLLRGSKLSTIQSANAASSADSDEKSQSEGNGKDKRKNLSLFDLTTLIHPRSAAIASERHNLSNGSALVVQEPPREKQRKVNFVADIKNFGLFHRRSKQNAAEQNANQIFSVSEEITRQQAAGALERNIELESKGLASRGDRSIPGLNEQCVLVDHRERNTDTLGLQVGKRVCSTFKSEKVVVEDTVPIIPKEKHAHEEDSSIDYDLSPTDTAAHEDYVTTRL
# [8] = target: 26S proteasome non-ATPase regulatory subunit 14 (Homo sapiens, UniProt O00487); assay: inhibition of proteasome subunit RPN11 – biochemical, fluorescence polarization, uHTS hits, confirmation (AID 602368); type: functional
# [9] = fluconazole-exposed Candida albicans growth modulators – fluorescence, retest, confirmation (AID 2467); type: functional, cell-based
# [10] = alpha-synuclein stem-loop luciferase translation blockers – H4 neuroglioma cells, luminescence, confirmation (AID 1988); type: functional, cell-based
# [11] = luciferase reporter signal suppression in cells – H4 neuroglioma cells, luminescence, dose response (AID 1990); type: functional, cell-based
# [12] = system: Streptococcus sp. 'group A'; assay: Streptococcus pyogenes SK(-)GAS viability under kanamycin – luminescence, BacTiterGlo, confirmation, counter-screen for streptokinase expression inhibitor project, dose response (AID 1900); type: functional, organism-based
# INS1 = assay: INS-1E survival protection against cytokine death – cell-based, luminescence, retest, dose response (AID 449756); type: functional; settings: Rattus norvegicus;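 also: cell death triggered by IL-1 beta plus TNF-alpha plus IFN-gamma mixture; protective hits raise ATP signal compared with cytokine alone wells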
# Small ubiquitin-related modifier 1, sequence (P63165 whole entry): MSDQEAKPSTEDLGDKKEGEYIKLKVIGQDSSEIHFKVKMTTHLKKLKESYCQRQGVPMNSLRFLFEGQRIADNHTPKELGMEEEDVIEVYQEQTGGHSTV
# 26S proteasome non-ATPase regulatory subunit 14, sequence (O00487 whole entry): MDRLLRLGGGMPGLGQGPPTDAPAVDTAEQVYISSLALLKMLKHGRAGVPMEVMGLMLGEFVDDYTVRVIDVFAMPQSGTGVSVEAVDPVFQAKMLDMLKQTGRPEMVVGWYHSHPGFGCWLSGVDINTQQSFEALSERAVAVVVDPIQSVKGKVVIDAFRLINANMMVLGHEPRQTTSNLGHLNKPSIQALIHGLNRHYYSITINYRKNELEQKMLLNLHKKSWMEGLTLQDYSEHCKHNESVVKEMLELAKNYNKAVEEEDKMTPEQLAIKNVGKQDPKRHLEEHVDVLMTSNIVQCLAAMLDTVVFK
# 72 kDa type IV collagenase, sequence (P08253 whole entry): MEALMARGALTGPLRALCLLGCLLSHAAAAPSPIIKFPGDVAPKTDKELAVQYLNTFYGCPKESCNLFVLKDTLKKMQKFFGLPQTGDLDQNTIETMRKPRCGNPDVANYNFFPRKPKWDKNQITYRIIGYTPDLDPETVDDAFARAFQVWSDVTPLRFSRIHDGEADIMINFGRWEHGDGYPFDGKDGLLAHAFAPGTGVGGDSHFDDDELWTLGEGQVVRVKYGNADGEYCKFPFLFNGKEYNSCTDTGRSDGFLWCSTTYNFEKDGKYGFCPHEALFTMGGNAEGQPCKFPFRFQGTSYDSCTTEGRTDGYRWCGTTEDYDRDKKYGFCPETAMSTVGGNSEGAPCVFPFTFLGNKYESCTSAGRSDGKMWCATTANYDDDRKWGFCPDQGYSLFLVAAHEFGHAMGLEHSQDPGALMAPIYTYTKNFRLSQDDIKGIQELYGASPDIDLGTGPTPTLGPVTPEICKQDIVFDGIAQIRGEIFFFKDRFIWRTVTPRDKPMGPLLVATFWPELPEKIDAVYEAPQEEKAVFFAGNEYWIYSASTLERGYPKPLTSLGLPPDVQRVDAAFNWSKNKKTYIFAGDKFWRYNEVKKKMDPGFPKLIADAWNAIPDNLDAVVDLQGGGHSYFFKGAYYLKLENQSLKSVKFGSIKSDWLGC
compound,measurement,setting,value
N=C(N)N/N=C/c1ccc(N(c2ccccc2)c2ccccc2)cc1,CC50,[1],6.42 µM (active)
same,EC50,[2],18.5 µM (inconclusive)
same,IC50,[3],66.3 µM (active)
same,IC50,[4],> 66.6 µM (inactive)
same,AC50,Caspase-6,10.1 µM (active)
same,EC50,Streptococcus,3.39 µM (active)
same,AC50,[5],10.8 µM (active)
same,IC50,[6],1.11 µM (active)
same,EC50,[7],9.44 µM (active)
same,IC50,[8],18 µM (active)
same,EC50,[9],5.12 µM (active)
same,EC50,[10],10.4 µM (active)
same,EC50,[11],8.89 µM (active)
same,EC50,[12],2.39 µM (active)
same,AC50,INS1,7.12 µM (active)
